Results reported in patent US10865188B2, “Dibenzo azepine compounds and their use in the treatment of otic diseases and disorders” (Pipeline Therapeutics, Inc., priority 2015, dated 2020).
Where two headings read alike, the source gives them in different places.

Assays:
HES5 = assay: Human neural stem cell assay, Hes5 gene expression (real-time PCR); format: cell-based; details: human neural stem cells, 7 point CRC, read-out: hNSC HES5 IC50
Experimental: (§1) Neural stem cells (NSC) were derived from embryonic stem cells using a published protocol (Yuan et al., Mar. 2, 2011, PLoS ONE, 6(3):e17540). Cells were sorted and characterized at passage 3 and were expanded. Cells were then frozen at passage 5. Cells were maintained in NSC media (DMEM/F12, N2 (1×), B27(1×) (Invitrogen), and Pen/Strep (1×) (Life Technologies) with 20 ng/ml bFGF (BD Bioscience/Corning)). On day 1, cells were plated in 96 well plates that have been previously coated with poly-ornithin and laminin, 60,000 cells/well in 100 μl of media. On day 2, spent media was removed, and 180 μl of fresh media was added to the cells. Later that same day (day 2), cells were treated with 20 μl of NSC media containing test compounds (7 point CRC). On day 3, spent media was removed and 140 μl of RLT/bME was added to the cells. RNA was extracted using the QiaCube (Qiagen®, Germantown, Md., USA) using the total RNA extraction+DNAse protocol. RNA was then reverse-transcribed to cDNA using iScript (Bio-Rad, Hercules, Calif., USA). cDNA was then used for real-time PCR analysis using iTaq Sybergreen (BioRad). Expression of Atoh1, Hes5, Hes1, Myosin7a genes was evaluated using CFX96 or CFX384 (Bio-Rad). HPRT1 was used as a reference gene. Analysis was done using Microsoft® Excel® and CBIS (ChemInnovation Software, Inc., San Diego, Calif., USA). […]

mice = assay: Auditory brainstem response (ABR) hearing threshold; format: in vivo; details: formulations of Examples 3(c) and 3(d) (2% w/v crystalline, poloxamer 407)
Experimental: Surgery was performed on naïve mice or mice with noise or pharmacologically-damaged ears. The animals were anesthetized with isoflurane and an 8 mm retroauricular incision was made to the lower caudal edge of the pinna. The skin was retracted and the fatty tissue was blunt dissected away from where the facial nerve and muscle come together. The muscle was retracted to reveal an area in the tympanic bulla where the bone was thin. A 30 g needle was used to drill a hole in the exposed thin portion of the otic bulla. A Hamilton syringe equipped with a 32 g blunt needle was inserted into the opening of the otic bulla. The drug formulation was delivered by injection and the needle removed. Wound closure was made with tissue glue.
Naïve mice or mice at various times after either noise or pharmacological deafening were anesthetized with ketamine/xylazine/acepromazine and the auditory brainstem response was determined in both ears using a Tucker Davis (Alachua, Fla.) RZ6 apparatus. The mice were exposed to clicks or pure tones of 4, 8, 16, 24 and 32 kHz at 90-10 dB in 10 dB descending steps and the hearing threshold was determined.

Atoh1 = assay: Human neural stem cell assay, Atoh1 gene expression (real-time PCR); format: cell-based; details: human neural stem cells, 7 point CRC, read-out: hNSC Atoh1 EC50
Experimental: as §1

[1] = Guinea pig PK after transtympanic delivery (perilymph and cochlea, LC/MS/MS); format: in vivo; details: for concentration at 1 day / concentration at 7 day / concentration at 14 day / concentration at 3 day / concentration at 21 day / concentration at 28 day: male, Hartley, other: transtympanic, 30 μL, 30 μL transtympanic; for concentration at 1 day: Day 1, LLOQ = 0.08 μM; for concentration at 7 day: Day 7, LLOQ = 0.08 μM; for concentration at 14 day: Day 14, LLOQ = 0.08 μM; for concentration at 3 day: Day 3, LLOQ = 0.08 μM; for concentration at 21 day: Day 21, LLOQ = 0.08 μM; for concentration at 28 day: Day 28, LLOQ = 0.08 μM
Source text: (§2) Male Hartley guinea pigs (300-350 g) were anesthetized with ketamine and xylazine. Thirty microliters of an aqueous pharmaceutical composition of the instant embodiments was delivered transtympanically to deposit the drug to the round window membrane. Delivery was unilateral. The animals were placed in a warm chamber in a lateral recumbent position keeping the dosed ear side up until they recover from anesthesia.
At various timepoints after administration, the animals were euthanized by CO2 inhalation. Blood and CSF were collected and stored at −80° C. The animals were decapitated, the temporal bones removed and the bulla opened to expose the otic capsule. Ipsilateral and contralateral perilymph were collected from the apex using a microcapillary tube. The ipsilateral cochlea was removed from the otic capsule and stored at −80° C. All tissues collected were analyzed using LC/MS/MS for test compound concentration as follows. Analytical standards were prepared by spiking known concentrations of the test compound stock solutions into matrices such as plasma or artificial CSF. Fixed amounts of tissues collected and spiked standards were precipitated with acetonitrile containing buspirone as an internal standard. The precipitated samples were centrifuged at 4000 g for 10 minutes at 4° C. The supernatants were analyzed using LC-MS/MS. The LC-MS/MS system was set up using the AB Sciex 4000 Qtrap (AB Sciex, Framingham, Mass.) equipped with Agilent 1200 series HPLC and CTC PAL Autosampler (Agilent Technologies, Santa Clara, Calif.).
Liquid compositions described herein were evaluated using the method described in Part E of the Biological Function section provided above. The liquid compositions prepared as described in Example 5(a)-5(d) were each drawn into a 1 mL syringe. Using the filled 1 mL syringe, the liquid composition was back-filled at 5° C. into a 100 μL Hamilton syringe adapted with 28 gauge needle. The Hamilton syringe was then allowed to warm to room temperature.
as §2, with “the above liquid” for “an aqueous pharmaceutical”, “were” for “of the instant embodiments was”, “The delivery” for “Delivery”, “recovered” for “recover”
At various timepoints after administration, the animals were euthanized by CO2 inhalation. Blood and cerebrospinal fluid were collected and stored at −80° C. The animals were decapitated, the temporal bones removed and the bulla were opened to expose the otic capsule. Ipsilateral and contralateral perilymph were collected from the apex using a microcapillary tube. The ipsilateral cochlea was removed from the otic capsule and was stored at −80° C. All tissues collected were analyzed using LC/MS/MS as described in Part E of the Biological Function section above.
The concentrations of Compound I and Compound II were measured using LC/MS/MS in both the perilymph fluid and the cochlea tissue after a transtympanic injection of an instant formulation of either the crystalline form or the amorphous form at various time points. […] Concentration of the instant compounds in the perilymph and/or cochlea tissue was above the human NSC EC50 for Atoh1, an indicator that the subject compounds may be efficacious in hair cell regeneration and hearing restoration in human. […] Table 3 below lists the results for the studies using aqueous formulations of crystalline Compound I while Table 4 below lists those for aqueous formulations of crystalline Compound II. The results for aqueous formulations of crystalline Compound I are also graphically shown in FIG. 5A and FIG. 5B while the results for aqueous formulations of crystalline Compound II are graphically shown in FIG. 6A and FIG. 6B.

[2] = cochlea, Amorphous form (Example 5(b)), read-out: Cochlea Average concentration
[3] = cochlea, Crystalline form (Example 5(a)), read-out: Cochlea Average concentration
[4] = perilymph, Amorphous form (Example 5(b)), read-out: perilymph Average concentration
[5] = perilymph, Crystalline form (Example 5(a)), read-out: Perilymph Average concentration

IC50 (HES5): 288 nM
EC50 (Atoh1): 625 nM
concentration in the perilymph and the cochlea compared with the human NSC EC50 for Atoh1 ([1]; dosed as the crystalline form, transtympanic): above the NSC EC50 from day 1 to day 28
concentration at 1 day [1, 2]: 211 µM
concentration at 7 day [1, 2]: 28.4 µM
concentration at 14 day [1, 2]: 0.04 µM
concentration at 1 day [1, 3]: 69 µM
concentration at 3 day [1, 3]: 25.6 µM
concentration at 7 day [1, 3]: 4.1 µM
concentration at 14 day [1, 3]: 9 µM
concentration at 21 day [1, 3]: 6.2 µM
concentration at 28 day [1, 3]: 12.8 µM
concentration at 1 day [1, 4]: 33.3 µM
concentration at 7 day [1, 4]: 14 µM
concentration at 14 day [1, 4]: 0 µM
concentration at 1 day [1, 5]: 395 µM
concentration at 3 day [1, 5]: 568 µM
concentration at 7 day [1, 5]: 18.9 µM
concentration at 14 day [1, 5]: 116 µM
concentration at 21 day [1, 5]: 18.2 µM
concentration at 28 day [1, 5]: 10.4 µM
exposure to the inner ear, crystalline formulation versus respective amorphous formulation ([1]; transtympanic, formulations of Example 5(a)-5(d)): longer exposure
Structure (SMILES): C[C@H](OC(=O)NCC(F)(F)C(F)(F)F)C(=O)N[C@@H]1C(=O)Nc2ccccc2-c2ccccc21 [Compound I, (2,2,3,3,3-pentafluoropropyl)-carbamic acid (S)-1-((S)-6-oxo-6,7-dihydro-5H-dibenzo[b,d]azepin-7-ylcarbamoyl) ethyl ester]
ABR Threshold Improvement (mice; 16 kHz): 7 dB
ABR Threshold Improvement (mice; 24 kHz): 10 dB
ABR Threshold Improvement (mice; 32 kHz): 8 dB
concentration in the perilymph and the cochlea compared with the human NSC EC50 for Atoh1 ([1]; dosed as the amorphous form, transtympanic): above the human NSC EC50 for Atoh1 at 1 day and 7 days
